Assay results taken from ChEMBL document CHEMBL1156839, “From anti-fouling to biofilm inhibition: new cytotoxic secondary metabolites from two Indonesian Agelas sponges” (Bioorg Med Chem, 2010).
≈ marks a conversion by molar mass, not a printed value. Structures can show the parent of a compound that is named as a salt. Calls of active or inactive are those of the source. The rule behind the calls is not given here.

What was measured:
[1] = test system: Staphylococcus epidermidis; assay: Antibacterial activity against Staphylococcus epidermidis; format: functional
L5178Y [2] = assay: Growth inhibition of mouse L5178Y cells at […] after 72 hrs by MTT assay relative to untreated control; format: functional; design: dose or concentration left out as unconfirmed; details: values are per cent of control
[3] = test system: Staphylococcus epidermidis; assay: Growth inhibition of Staphylococcus epidermidis; format: functional, organism-based
[4] = test system: Staphylococcus epidermidis; assay: Antibacterial activity against Staphylococcus epidermidis assessed as inhibition of biofilm formation after 18 hrs by adherent assay; format: functional, organism-based
L5178Y [5] = assay: Cytotoxicity against mouse L5178Y cells after 72 hrs by MTT assay; format: functional, cell-based
Amphibalanus improvisus [6] = assay: Toxicity against Balanus improvisus […] larvae assessed as cyprid larval death at 0.1 uM to 100 uM; format: ADME, organism-based; details: in vivo
Amphibalanus improvisus [7] = assay: Antifouling activity against Balanus improvisus […] larvae assessed as inhibition of cyprid larval settlement at 0.1 uM to 100 uM; format: functional, organism-based
[8] = Staphylococcus epidermidis, read-out: MIC

`CN(C)CCc1ccc(OCCCNC(=O)c2cc(Br)c(Br)[nH]2)c(I)c1` [AGELANESIN D] was tested, and the MIC [1, 8] was over 33 µM, the growth, % of control (L5178Y [2]) was -2.3% and the “growth inhibition (GI)” value [3] was “inactive”. The inhibition [4] was “inactive” and the IC50 (L5178Y [5]) was 13.1 µM.

`C=C1CC[C@@H]2C(C)(C)CCC[C@@]2(C)[C@@H]1CC/C(C)=C/C[n+]1cn(C)c2nc[nH]/c(=N\O)c21.[Cl-]` was tested, and the MIC [1, 8] was over 45 µM, the Activity (Amphibalanus improvisus [6]) was “Toxic” and the growth, % of control (L5178Y [2]) was 4.2%. The “growth inhibition (GI)” value [3] was “inactive”, the inhibition [4] was “Active” and the inhibition (Amphibalanus improvisus [7]) was “Dose-dependent effect”. It also gave an IC50 (L5178Y [5]) of 12.5 µM.

For `NC1=N[C@@]23CCCN2C(=O)c2cc(Br)c(Br)n2[C@H]3N1`, the “growth inhibition (GI)” value [3] was “inactive” and the inhibition [4] was “inactive”.

With `CN1C(=O)NC(CCCNC(=O)c2cc(Br)c(Br)n2C)C1=O` (configuration not stated) [MIDPACAMIDE] the MIC [1, 8] was over 46 µM, the growth, % of control (L5178Y [2]) was 46.7% and the “growth inhibition (GI)” value [3] was “inactive”. For the same compound, the inhibition [4] was “inactive”.

In the case of `CN(C)CCc1ccc(OCCCNC(=O)c2cc(Br)c(Br)[nH]2)c(Br)c1` [AGELANESIN C], the MIC [1, 8] is reported as over 36 µM, the growth, % of control (L5178Y [2]) is reported as 0.8% and the “growth inhibition (GI)” value [3] is reported as “inactive”. For the same compound, the inhibition [4] was “inactive” and the IC50 (L5178Y [5]) was 16.8 µM.

In the case of `O=C1NCC(O)n2cc(Br)cc21` (configuration not stated), the MIC [1, 8] is reported as over 87 µM, the growth, % of control (L5178Y [2]) is reported as 78.5% and the “growth inhibition (GI)” value [3] is reported as “inactive”. The inhibition [4] was “inactive” and the IC50 (L5178Y [5]) was over 43.2 µM.

With `Cn1c(C(=O)O)cc(Br)c1Br` the MIC [1, 8] was over 71 µM, the growth, % of control (L5178Y [2]) was 87.8% and the “growth inhibition (GI)” value [3] was “inactive”. The inhibition [4] was “inactive”.

In the case of `CC(=O)C(O)(CCCNC(=O)c1cc(Br)c(Br)n1C)CC(=O)O` (configuration not stated) [AGELANIN B], the MIC [1, 8] is reported as over 44 µM, the growth, % of control (L5178Y [2]) is reported as 92.8% and the “growth inhibition (GI)” value [3] is reported as “inactive”. For the same compound, the inhibition [4] was “inactive”.

In the case of `COC(=O)c1cc(Br)c(Br)n1C`, the MIC [1, 8] is reported as over 67 µM, the growth, % of control (L5178Y [2]) is reported as 83.4% and the “growth inhibition (GI)” value [3] is reported as “inactive”. For the same compound, the inhibition [4] was “inactive”.

In the case of `Cn1c(C(=O)NCCS(=O)(=O)O)cc(Br)c1Br` [MAURITAMIDE D], the MIC [1, 8] is reported as over 52 µM, the growth, % of control (L5178Y [2]) is reported as 118% and the “growth inhibition (GI)” value [3] is reported as “inactive”. The inhibition [4] was “inactive”.

In the case of `NC1=N[C@@]23CCCN2C(=O)c2cc(Br)c(Br)n2[C@H]3N1` [DIBROMPHAKELLIN HYDROCHLORIDE], the MIC [1, 8] is reported as over 47 µM.

For `NC1=N[C@@]23CCCN2C(=O)c2cc(Br)c(Br)n2[C@]3(O)N1` [DIBROMOHYDROXYPHAKELLIN HYDROCHLORIDE], the MIC [1, 8] was over 45 µM, the growth, % of control (L5178Y [2]) was 113% and the “growth inhibition (GI)” value [3] was “inactive”. For the same compound, the inhibition [4] was “inactive”.

With `CN(C)CCc1ccc(OCCCNC(=O)c2cc(Br)c[nH]2)c(I)c1` [AGELANESIN B] the MIC [1, 8] was over 38 µM, the growth, % of control (L5178Y [2]) was 2.3% and the “growth inhibition (GI)” value [3] was “inactive”. For the same compound, the inhibition [4] was “inactive” and the IC50 (L5178Y [5]) was 9.25 µM.

`CCN1C(=N)NC(=O)C1(CCCNC(=O)c1cc(Br)c(Br)n1C)NCCS(=O)(=O)O` (configuration not stated) [MAURITAMIDE C] was tested, and the MIC [1, 8] was over 35 µM, the growth, % of control (L5178Y [2]) was 98.6% and the “growth inhibition (GI)” value [3] was “inactive”. For the same compound, the inhibition [4] was “inactive”.

In the case of `Cn1c(C(=O)NCCCC(=O)O)cc(Br)c1Br`, the MIC [1, 8] is reported as over 54 µM, the growth, % of control (L5178Y [2]) is reported as 108% and the “growth inhibition (GI)” value [3] is reported as “inactive”. The inhibition [4] was “inactive”.

For `Cn1c(C(=O)NCCCC2(NCCS(=O)(=O)O)NC(=N)NC2=O)cc(Br)c1Br` (configuration not stated) [MAURITAMIDE B], the MIC [1, 8] was over 37 µM, the growth, % of control (L5178Y [2]) was 92.5% and the “growth inhibition (GI)” value [3] was “inactive”. For the same compound, the inhibition [4] was “inactive”.

For `NC1=N[C@@]23CCCN2C(=O)c2cc(Br)c(Br)n2[C@H]3N1` [DIBROMPHAKELLIN], the MIC [1] was over 51 µM.

In the case of `CN(C)CCc1ccc(OCCCNC(=O)c2cc(Br)c[nH]2)c(Br)c1` [AGELANESIN A], the MIC [1, 8] is reported as over 42 µM, the growth, % of control (L5178Y [2]) is reported as -0.5% and the “growth inhibition (GI)” value [3] is reported as “inactive”. The inhibition [4] was “inactive” and the IC50 (L5178Y [5]) was 9.55 µM.

`C=C1CC[C@@H]2C(C)(C)CCC[C@@]2(C)[C@@H]1CC/C(C)=C/Cn1c[n+](C)c2ncnc(N)c21.[Cl-]` [AGELASINE D] was tested, and the MIC [1, 8] was under 0.0877 µM, the Activity (Amphibalanus improvisus [6]) was “Toxic” and the growth, % of control (L5178Y [2]) was 1.9%. For the same compound, the “growth inhibition (GI)” value [3] was “inactive”, the inhibition [4] was “inactive” and the inhibition (Amphibalanus improvisus [7]) was “Dose-dependent effect”. For the same compound, the IC50 (L5178Y [5]) was 4.03 µM.

For `CC1=CCC[C@@H](C)[C@]1(C)CC/C(C)=C/CC/C(C)=C/CS(=O)(=O)CCNC(=N)N` [AGELASIDINE C], the MIC [1, 8] was 5.9 µM (≈ 2.5 µg/mL), the growth, % of control (L5178Y [2]) was 37.4% and the “growth inhibition (GI)” value [3] was “inactive”. The inhibition [4] was “inactive”.

For `Cn1c(C(=O)N2CCC(O)=C3N=C(N)N=C32)cc(Br)c1Br` [AGELANIN A], the MIC [1, 8] was over 48 µM, the growth, % of control (L5178Y [2]) was 98.9% and the “growth inhibition (GI)” value [3] was “inactive”. For the same compound, the inhibition [4] was “inactive”.
